# Assay results as given in ChEMBL document CHEMBL1201862, “PubChem BioAssay data set” (2004).
# Where “and” joins values, the source holds several entries; their conditions need not be identical. Equal entries are not always repeated. Calls of active or inactive are those of the source.
# Legend:
# [1] = biological target: T1, Endoribonuclease toxin MazF (Escherichia coli K-12, UniProt P0AE70); experiment: MazF endoribonuclease activators, SAR follow-up, biochemical, fluorescence, single-stranded RNA substrate (AID 588603); format: functional
# T1 sequence (P0AE70 whole entry): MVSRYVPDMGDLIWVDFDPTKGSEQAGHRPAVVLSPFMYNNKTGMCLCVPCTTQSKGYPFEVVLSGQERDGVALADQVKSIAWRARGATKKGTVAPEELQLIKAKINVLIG
# [2] = biological target: T1, Endoribonuclease toxin MazF; experiment: MazF toxin RNase activators, dose response, biochemical, fluorescence, single-stranded RNA substrate, uHTS hits (AID 588481); format: functional
# MEF = experiment: SAR analysis of small molecule cytotoxicity of MazEF TA System activators in embryonic fibroblast (MEF) cells. [Related pubchem assays (depositor defined):AID504720, AID504743]; format: functional; details: Mus musculus
# [3] = biological target: T1, Endoribonuclease toxin MazF; experiment: SAR analysis of small molecule activators of the MazEF TA System via a fluorescence-based single-stranded RNase assay counterscreen. [Related pubchem assays (depositor defined):AID504720, AID504743]; format: functional
# [4] = biological target: T1, Endoribonuclease toxin MazF; experiment: fluorescent RNA oligo signal without MazF, dose response, counter-screen for MazEF activator project, biochemical, fluorescence, single-stranded RNase substrate (AID 588502); format: functional
# [5] = biological target: Delta-type opioid receptor (Homo sapiens, UniProt P41143); experiment: Counterscreen for agonists of heterodimerization of the mu 1 (OPRM1) and delta 1 (OPRD1) opioid receptors: Luminescence-based cell-based high throughput dose response assay to identify agonists of OPRD1 homodimerization. [Related pubchem assays (depositor defined):AID504326, AID504355, AID504692, AID504904, AID504905]; format: functional
# Mu-type opioid receptor = Mu-type opioid receptor (Homo sapiens, UniProt P35372); experiment: Counterscreen for agonists of heterodimerization of the mu 1 (OPRM1) and delta 1 (OPRD1) opioid receptors: Luminescence-based cell-based high throughput dose response assay to identify agonists of OPRM1 homodimerization.; format: functional;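 note: U2OS cells expressing OPRM1 and beta-arrestin as split beta-galactosidase partners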
# [6] = biological target: 5-hydroxytryptamine receptor 5A (Homo sapiens, UniProt P47898); experiment: Counterscreen for agonists of OPRM1-OPRD1 heterodimerization: luminescence-based cell-based high throughput dose response assay to identify agonists of 5-hydroxytryptamine (serotonin) 5A receptor (HTR5A). [Related pubchem assays (depositor defined):AID504326, AID504355, AID504692, AID504904, AID504905]; format: functional
# [7] = biological target: Beta-adrenergic receptor kinase 1 (Homo sapiens, UniProt P25098); experiment: aptamer displacement from bead-bound GRK2 – biochemical, cherry pick 1, bead flow cytometry, dose response (AID 504500)
# Nonstructural protein 1 = Nonstructural protein 1 (Influenza A virus, UniProt Q194T2); format: functional, Influenza A virus (A/California/07/2009(H1N1))
# Hexokinase HKDC1 = Hexokinase HKDC1 (Homo sapiens, UniProt Q2TB90); experiment: HKDC1 hexokinase inhibitors, dose response, biochemical, W721R variant (AID 504729); format: functional
# [8] = biological target: T2, Carboxy-terminal domain RNA polymerase II polypeptide A small phosphatase 1 (Homo sapiens, UniProt Q9GZU7); experiment: inhibitors of CTDSP1, concentration-response testing, biochemical assay, absorbance-based, actives from ultra-high-throughput screening (AID 540297); format: functional
# T2 sequence (Q9GZU7 whole entry): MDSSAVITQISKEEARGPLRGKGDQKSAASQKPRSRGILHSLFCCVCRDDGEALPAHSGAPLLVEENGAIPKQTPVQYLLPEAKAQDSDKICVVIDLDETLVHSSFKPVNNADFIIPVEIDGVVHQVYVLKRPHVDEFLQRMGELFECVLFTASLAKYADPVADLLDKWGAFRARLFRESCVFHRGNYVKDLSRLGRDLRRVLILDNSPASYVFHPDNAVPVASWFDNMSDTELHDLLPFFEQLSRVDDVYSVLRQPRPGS
# [9] = biological target: T3, Tyrosyl-DNA phosphodiesterase 2 (Homo sapiens, UniProt O95551); experiment: human TDP2 enzyme inhibitors, dose response, biochemical, epi absorbance, IC50 (AID 743297)
# T3 sequence (O95551 whole entry): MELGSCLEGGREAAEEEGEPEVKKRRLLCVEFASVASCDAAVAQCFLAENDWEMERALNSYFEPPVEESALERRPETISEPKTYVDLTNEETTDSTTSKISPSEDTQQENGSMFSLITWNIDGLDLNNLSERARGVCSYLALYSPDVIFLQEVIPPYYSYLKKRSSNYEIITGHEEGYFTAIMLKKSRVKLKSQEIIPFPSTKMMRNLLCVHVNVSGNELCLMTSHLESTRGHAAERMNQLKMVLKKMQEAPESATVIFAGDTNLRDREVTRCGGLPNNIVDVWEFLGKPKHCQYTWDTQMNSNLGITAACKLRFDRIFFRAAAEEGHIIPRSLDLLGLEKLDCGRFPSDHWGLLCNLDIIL
# Vero = experiment: Vero E6 cell cytotoxicity, dose response, cytotoxicity control (AID 540298); format: functional; details: Chlorocebus sabaeus
# MDCK [10] = experiment: MDCK cell cytotoxicity, dose response, cytotoxicity control (AID 540296); format: functional; details: Canis lupus familiaris
# MDCK [11] = experiment: antiviral activity against H1N1 influenza, dose response, cell-based, strain KY136 (AID 540257); format: functional; details: Canis lupus familiaris
# [12] = biological target: T4, Tyrosine-protein phosphatase non-receptor type 7 (Homo sapiens, UniProt P35236); format: functional
# T4 sequence (P35236 whole entry): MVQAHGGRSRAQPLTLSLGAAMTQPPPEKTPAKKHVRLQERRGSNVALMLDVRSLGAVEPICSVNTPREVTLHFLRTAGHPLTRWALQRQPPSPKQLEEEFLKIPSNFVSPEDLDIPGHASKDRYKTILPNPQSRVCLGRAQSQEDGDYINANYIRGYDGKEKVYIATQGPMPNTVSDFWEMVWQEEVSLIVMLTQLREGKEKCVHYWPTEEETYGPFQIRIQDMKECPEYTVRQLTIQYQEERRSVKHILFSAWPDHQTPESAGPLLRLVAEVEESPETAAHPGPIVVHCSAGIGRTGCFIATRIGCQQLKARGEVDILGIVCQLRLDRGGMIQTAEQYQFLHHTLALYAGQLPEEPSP
# [13] = biological target: Glyceraldehyde-3-phosphate dehydrogenase (Homo sapiens, UniProt P04406)
# [14] = biological target: T5, Dual specificity protein phosphatase 6 (Rattus norvegicus, UniProt Q64346)
# T5 sequence (Q64346 whole entry): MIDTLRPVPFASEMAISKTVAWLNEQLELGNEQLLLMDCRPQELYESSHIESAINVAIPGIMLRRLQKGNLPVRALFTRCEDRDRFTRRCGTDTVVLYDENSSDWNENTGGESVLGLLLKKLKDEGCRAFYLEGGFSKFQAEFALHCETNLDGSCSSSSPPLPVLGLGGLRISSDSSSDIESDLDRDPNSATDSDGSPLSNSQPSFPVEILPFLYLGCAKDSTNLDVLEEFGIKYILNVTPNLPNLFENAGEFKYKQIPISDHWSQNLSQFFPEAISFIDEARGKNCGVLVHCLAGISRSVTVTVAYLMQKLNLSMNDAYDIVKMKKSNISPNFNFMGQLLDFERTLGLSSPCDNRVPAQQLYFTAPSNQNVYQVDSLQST
# [15] = biological target: T5, Dual specificity protein phosphatase 6; format: functional
# [16] = biological target: Voltage-gated inwardly rectifying potassium channel KCNH2 (Homo sapiens, UniProt Q12809); details: Potency;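 note: confirmatory quantitative high-throughput screen measuring inhibition of hERG channel activity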
# [17] = Luminescent dose response cell-based high throughput screening assay for inhibitors of the Janus kinase 2 mutant JAK2V617F. [Related pubchem assays: 1446 (Primary screen.), 1521 (Confirmation assay.), 1486 (Counter screen.)]; format: functional
# [18] = biological target: T6, High affinity choline transporter 1 (Homo sapiens, UniProt Q9GZV3); experiment: CHT inhibitors, dose response, cell-based, 5-point CRC, membrane potential dye (AID 504840); format: functional
# T6 sequence (Q9GZV3 whole entry): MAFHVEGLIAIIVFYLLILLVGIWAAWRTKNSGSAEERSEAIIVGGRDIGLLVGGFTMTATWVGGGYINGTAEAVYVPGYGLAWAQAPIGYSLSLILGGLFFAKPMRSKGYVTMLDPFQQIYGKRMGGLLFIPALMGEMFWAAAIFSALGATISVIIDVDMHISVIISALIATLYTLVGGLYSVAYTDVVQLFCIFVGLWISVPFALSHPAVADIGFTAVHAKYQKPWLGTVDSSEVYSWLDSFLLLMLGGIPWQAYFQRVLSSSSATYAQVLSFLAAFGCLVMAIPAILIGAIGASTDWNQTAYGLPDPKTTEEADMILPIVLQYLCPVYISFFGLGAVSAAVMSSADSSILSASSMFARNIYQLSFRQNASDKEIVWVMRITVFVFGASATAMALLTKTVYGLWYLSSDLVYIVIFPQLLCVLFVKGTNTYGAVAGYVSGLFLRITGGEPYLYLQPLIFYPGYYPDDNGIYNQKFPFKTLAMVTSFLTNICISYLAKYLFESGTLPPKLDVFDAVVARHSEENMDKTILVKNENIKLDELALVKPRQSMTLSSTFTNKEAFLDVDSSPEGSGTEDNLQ
# HEK293 [19] = experiment: cells; details: Homo sapiens
# HEK293 [20] = experiment: cells; details: Homo sapiens; remark: listed apart in the source
# NIH3T3 = experiment: cytotoxicity in NIH-3T3 fibroblasts, dose response, cytotoxicity control for antifungal drug resistance project, cell-based, Alamar Blue, fluconazole, dry powder (AID 488809); format: functional; details: Mus musculus
# Cytochrome P450 2D6 = Cytochrome P450 2D6 (Homo sapiens, UniProt P10635);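 note: CYP2D6 member of a cytochrome P450 panel assay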
# Cytochrome P450 1A2 = biological target: T7, Cytochrome P450 1A2 (Homo sapiens, UniProt P05177);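 note: PubChem cytochrome P450 panel assay, CYP1A2 panel member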
# T7 sequence (P05177 whole entry): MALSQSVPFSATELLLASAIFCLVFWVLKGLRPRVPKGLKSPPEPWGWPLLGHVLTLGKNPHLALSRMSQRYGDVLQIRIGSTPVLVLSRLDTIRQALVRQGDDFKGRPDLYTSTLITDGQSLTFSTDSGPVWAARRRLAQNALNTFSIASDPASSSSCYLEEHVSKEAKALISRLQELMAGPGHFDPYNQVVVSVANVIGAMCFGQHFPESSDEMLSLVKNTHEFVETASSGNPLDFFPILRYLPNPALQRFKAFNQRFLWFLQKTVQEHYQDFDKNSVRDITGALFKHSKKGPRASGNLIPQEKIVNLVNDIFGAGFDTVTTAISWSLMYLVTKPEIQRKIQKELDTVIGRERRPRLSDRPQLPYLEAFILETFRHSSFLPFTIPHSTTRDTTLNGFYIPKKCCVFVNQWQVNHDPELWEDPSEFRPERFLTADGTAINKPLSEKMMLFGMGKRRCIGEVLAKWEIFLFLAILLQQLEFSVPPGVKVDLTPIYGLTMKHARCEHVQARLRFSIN
# Sequence of Nonstructural protein 1 (Q194T2 whole entry): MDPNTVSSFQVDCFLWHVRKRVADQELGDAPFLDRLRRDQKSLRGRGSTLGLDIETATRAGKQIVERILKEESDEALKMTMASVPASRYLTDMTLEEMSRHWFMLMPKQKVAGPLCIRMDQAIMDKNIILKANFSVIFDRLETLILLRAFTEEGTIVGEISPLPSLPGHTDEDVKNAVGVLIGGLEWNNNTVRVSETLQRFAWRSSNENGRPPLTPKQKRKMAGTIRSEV
# Sequence of Glyceraldehyde-3-phosphate dehydrogenase (P04406 whole entry): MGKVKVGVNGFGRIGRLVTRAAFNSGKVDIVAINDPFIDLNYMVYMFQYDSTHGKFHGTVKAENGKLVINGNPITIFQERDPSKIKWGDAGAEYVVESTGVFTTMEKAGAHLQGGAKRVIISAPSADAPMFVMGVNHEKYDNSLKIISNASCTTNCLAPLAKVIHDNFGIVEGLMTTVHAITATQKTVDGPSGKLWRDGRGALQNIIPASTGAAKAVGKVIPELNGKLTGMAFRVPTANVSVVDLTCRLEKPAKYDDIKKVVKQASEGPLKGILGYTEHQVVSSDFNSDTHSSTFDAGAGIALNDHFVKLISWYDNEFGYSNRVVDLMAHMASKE
# Sequence of 5-hydroxytryptamine receptor 5A (P47898 whole entry): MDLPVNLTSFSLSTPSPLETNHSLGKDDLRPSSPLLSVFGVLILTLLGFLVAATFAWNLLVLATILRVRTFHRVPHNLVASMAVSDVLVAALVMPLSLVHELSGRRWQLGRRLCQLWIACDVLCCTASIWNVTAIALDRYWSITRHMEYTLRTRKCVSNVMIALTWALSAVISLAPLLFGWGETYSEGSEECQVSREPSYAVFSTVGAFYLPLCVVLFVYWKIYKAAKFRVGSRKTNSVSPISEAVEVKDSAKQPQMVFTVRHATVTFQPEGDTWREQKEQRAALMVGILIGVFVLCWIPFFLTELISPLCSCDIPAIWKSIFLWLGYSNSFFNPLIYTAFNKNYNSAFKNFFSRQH
# Sequence of Mu-type opioid receptor (P35372 whole entry): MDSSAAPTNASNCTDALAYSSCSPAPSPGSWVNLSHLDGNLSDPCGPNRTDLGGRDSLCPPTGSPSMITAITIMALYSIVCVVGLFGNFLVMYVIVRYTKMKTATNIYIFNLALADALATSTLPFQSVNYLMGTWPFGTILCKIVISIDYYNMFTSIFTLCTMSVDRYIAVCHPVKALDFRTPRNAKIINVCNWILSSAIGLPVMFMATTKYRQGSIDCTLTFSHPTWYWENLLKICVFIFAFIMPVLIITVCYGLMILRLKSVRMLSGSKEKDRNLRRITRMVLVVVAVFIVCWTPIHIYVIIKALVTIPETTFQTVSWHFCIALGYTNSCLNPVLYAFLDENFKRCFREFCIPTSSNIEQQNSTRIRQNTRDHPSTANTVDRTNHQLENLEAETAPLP
# Sequence of Hexokinase HKDC1 (Q2TB90 whole entry, the tested form may be a part): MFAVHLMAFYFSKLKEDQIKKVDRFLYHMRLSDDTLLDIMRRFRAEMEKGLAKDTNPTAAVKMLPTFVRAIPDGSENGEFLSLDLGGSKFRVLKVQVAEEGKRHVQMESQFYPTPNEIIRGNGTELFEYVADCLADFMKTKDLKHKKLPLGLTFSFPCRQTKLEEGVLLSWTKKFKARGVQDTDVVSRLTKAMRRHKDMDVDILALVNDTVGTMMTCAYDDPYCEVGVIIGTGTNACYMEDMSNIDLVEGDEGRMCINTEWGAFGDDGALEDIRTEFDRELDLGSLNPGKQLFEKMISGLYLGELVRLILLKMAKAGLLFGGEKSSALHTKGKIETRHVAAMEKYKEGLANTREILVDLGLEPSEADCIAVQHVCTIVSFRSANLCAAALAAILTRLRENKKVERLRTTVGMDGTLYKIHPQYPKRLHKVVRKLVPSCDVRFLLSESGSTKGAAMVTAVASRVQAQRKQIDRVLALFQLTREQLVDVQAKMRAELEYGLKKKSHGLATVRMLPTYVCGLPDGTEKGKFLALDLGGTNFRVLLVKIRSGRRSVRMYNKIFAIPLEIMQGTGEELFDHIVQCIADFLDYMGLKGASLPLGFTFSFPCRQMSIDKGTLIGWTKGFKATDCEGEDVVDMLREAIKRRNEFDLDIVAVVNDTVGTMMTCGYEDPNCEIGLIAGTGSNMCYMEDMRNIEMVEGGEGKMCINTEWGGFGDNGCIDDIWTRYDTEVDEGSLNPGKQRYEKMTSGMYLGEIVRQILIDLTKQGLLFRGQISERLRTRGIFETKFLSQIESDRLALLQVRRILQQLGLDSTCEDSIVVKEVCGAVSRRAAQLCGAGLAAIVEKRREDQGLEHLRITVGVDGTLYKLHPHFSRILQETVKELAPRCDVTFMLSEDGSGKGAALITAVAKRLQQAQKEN
# Sequence of Voltage-gated inwardly rectifying potassium channel KCNH2 (Q12809 whole entry): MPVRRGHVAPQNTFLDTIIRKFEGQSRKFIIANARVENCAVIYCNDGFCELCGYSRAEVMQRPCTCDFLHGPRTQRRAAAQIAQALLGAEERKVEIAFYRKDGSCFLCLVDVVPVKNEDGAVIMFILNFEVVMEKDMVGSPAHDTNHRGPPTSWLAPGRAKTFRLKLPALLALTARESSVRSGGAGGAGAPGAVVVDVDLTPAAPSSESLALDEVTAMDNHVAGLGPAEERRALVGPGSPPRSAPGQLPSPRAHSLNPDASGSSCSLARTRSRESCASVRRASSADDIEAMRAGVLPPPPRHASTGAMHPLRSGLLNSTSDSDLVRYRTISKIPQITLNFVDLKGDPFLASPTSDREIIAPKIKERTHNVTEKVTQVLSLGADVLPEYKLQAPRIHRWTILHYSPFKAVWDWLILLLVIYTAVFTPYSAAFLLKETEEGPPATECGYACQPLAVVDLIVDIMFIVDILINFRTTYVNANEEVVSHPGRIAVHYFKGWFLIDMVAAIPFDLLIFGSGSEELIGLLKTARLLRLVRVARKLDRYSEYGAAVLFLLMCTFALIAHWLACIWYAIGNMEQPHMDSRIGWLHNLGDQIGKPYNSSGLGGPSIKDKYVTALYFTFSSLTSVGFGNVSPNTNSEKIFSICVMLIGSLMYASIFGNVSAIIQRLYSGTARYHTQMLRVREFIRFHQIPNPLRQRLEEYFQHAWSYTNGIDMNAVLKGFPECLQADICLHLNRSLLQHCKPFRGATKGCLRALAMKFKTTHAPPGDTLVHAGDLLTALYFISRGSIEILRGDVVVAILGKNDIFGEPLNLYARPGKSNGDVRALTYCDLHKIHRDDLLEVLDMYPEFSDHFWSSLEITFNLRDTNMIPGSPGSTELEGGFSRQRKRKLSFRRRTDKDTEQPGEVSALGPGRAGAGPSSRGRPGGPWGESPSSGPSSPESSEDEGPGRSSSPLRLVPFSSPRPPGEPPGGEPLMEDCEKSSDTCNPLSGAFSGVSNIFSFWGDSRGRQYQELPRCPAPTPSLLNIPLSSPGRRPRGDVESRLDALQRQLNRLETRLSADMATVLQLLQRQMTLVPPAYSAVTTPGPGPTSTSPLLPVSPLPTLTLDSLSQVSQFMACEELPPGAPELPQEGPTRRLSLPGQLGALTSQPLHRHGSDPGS
# Sequence of Beta-adrenergic receptor kinase 1 (P25098 whole entry): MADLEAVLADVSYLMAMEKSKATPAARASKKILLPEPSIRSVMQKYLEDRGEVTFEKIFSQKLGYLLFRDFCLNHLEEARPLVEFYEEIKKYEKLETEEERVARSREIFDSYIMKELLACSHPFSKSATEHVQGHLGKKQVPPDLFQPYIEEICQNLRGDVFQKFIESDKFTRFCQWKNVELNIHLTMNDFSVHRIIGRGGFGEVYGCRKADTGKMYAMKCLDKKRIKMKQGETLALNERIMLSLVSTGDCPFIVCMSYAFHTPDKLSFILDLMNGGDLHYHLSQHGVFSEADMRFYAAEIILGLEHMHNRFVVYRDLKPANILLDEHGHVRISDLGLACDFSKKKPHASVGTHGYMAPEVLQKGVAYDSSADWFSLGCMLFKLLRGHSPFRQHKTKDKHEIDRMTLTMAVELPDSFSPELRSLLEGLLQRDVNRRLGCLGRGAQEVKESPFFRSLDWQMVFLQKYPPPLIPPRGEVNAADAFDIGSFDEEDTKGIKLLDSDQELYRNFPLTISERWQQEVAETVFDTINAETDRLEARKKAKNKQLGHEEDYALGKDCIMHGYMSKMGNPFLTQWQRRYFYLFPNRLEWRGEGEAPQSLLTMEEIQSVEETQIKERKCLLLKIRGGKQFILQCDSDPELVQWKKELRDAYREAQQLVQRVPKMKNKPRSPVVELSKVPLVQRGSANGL
# Sequence of Delta-type opioid receptor (P41143 whole entry): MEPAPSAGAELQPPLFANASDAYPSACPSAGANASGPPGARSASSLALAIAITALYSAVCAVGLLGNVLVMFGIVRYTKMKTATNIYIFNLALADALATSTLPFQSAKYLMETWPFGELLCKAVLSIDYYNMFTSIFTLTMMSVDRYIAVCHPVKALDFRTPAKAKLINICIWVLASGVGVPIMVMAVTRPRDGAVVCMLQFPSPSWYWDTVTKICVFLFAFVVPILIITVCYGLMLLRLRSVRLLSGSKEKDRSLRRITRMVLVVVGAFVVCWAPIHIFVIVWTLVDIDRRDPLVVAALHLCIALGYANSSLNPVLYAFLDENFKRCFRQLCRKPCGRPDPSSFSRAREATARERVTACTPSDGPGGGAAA
# Sequence of Cytochrome P450 2D6 (P10635 whole entry): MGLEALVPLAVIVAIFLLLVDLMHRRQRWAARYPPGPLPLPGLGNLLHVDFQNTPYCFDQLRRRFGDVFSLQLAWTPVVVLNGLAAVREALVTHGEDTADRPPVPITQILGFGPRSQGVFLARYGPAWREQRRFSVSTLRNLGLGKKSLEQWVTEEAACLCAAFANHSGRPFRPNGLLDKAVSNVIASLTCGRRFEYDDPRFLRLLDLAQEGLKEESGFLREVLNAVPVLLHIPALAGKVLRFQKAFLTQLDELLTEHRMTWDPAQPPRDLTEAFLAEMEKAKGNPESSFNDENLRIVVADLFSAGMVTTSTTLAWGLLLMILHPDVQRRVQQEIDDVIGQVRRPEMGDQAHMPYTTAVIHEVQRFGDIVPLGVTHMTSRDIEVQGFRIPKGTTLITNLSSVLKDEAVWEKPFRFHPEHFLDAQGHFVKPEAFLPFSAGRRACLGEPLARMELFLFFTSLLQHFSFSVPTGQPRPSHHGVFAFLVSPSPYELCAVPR
smiles,measurement,setting,value
O=C(C1=NN[C@@H]2C(=O)N(c3cccc(F)c3)C(=O)[C@H]12)c1ccc2ccccc2n1,EC50,[1],24.4 µM (inactive)
same,EC50,[2],20.5 µM (inactive)
same,CC50,MEF,> 99 µM (inactive)
same,EC50,[3],> 99 µM (inactive)
same,EC50,[4],> 99 µM (inactive)
Cc1ccc(C)c(-n2cc(CNC(C)Cn3cncn3)c(-c3ccccc3)n2)c1 (centres undefined),EC50,[5],> 92.5 µM (inactive)
same,EC50,Mu-type opioid receptor,> 92.5 µM (inactive)
same,EC50,[6],> 92.5 µM (inactive)
O=C(O)c1ccccc1-c1c2cc(I)c(=O)c(I)c-2oc2c(I)c(O)c(I)cc12,EC50,[7],14.7 µM (inactive)
same,IC50,Nonstructural protein 1,19.4 µM (active)
same,IC50,Hexokinase HKDC1,14.4 µM (active)
same,IC50,[8],1.89 µM (active)
same,IC50,[9],> 14.3 µM (inactive) and 35.7 µM (inactive)
Fc1ccc(-[n+]2nc(Nc3ccccc3)sc2-c2c(Cl)cccc2Cl)cc1,IC50,Nonstructural protein 1,51.2 µM (active)
same,CC50,Vero,23.2 µM (active)
same,CC50,MDCK [10],11.6 µM (active)
same,IC50,MDCK [11],> 100 µM (active)
C#CCCCCCCCCCCCCCCCCCC,IC50,[12],> 100 µM (not active)
same,IC50,[13],> 100 µM (not active)
same,IC50,[14],> 100 µM (inactive)
same,IC50,[15],> 100 µM (inactive)
Brc1ccc(-c2ccccc2)cc1,AC50,[16],39.8 µM (inconclusive)
COc1ccc(C2=Nn3c(nnc3C3CCCCC3)SC2)cc1OC,IC50,[17],3.41 µM (active)
same,IC50,[18],1.74 µM (active)
same,EC50,HEK293 [19],> 59.6 µM (inactive)
same,EC50,HEK293 [20],> 59.6 µM (inactive)
CCOC(=O)c1nn(Cc2ccc(Cl)cc2)c2ccccc12,AC50,NIH3T3,39 µM (active)
CS(=O)(=O)O.Cc1ccc(N(CC2=NCCN2)c2cccc(O)c2)cc1 [PHENTOLAMINE MESYLATE],AC50,Cytochrome P450 2D6,3.16 µM (active)
same,AC50,Cytochrome P450 1A2,inactive
